Legend:
[1] = test system: Keratinocytes isolated from the human epidermal tissue; experiment: Inhibition of reactive oxygen species formation after UVB (DCF-DA fluorescence); type: cell-based; conditions: 1% ginsenoside F2; for ratio to the ROS of the control group, elapsed time after exposure to 30 mJ/cm^2 of UVB 0 hr: 0 hr after 30 mJ/cm^2 UVB; for ratio to the ROS of the control group, elapsed time after exposure to 30 mJ/cm^2 of UVB 2 hrs: 2 hrs after 30 mJ/cm^2 UVB; for ratio to the ROS of the control group, elapsed time after exposure to 30 mJ/cm^2 of UVB 3 hrs: 3 hrs after 30 mJ/cm^2 UVB
Method: 5×10^4 Keratinocytes isolated from the human epidermal tissue are put in each well of a 24-well plate and immobilized for 24 hours. After 16 hours, the keratinocytes are treated with 1% ginsenoside F2. For a comparison, the control group is not treated with ginsenoside F2. Each well is removed of the culture medium after 2 hours and then fed with 100 μl of a phosphate-buffered saline (PBS) solution. The keratinocytes are exposed to 30 mJ/cm^2 of ultraviolet radiation under an ultraviolet B (UVB) lamp (Model: F15T8, UV B 15 W, Sankyo Denki Co., Ltd., Japan). Each well is removed of the PBS solution and then supplied with 200 μl of the keratinocyte culture medium. The well is treated with ginsenoside F2 again. Then, the quantity of the reactive oxygen species (ROS) increased by the UV stimulation is determined at defined time intervals. The quantity of the reactive oxygen species (ROS) is determined according to the method that includes measuring the fluorescence of dichlorofluorescin diacetate (DCF-DA) (Tan et al., 1998, J. Cell Biol. Vol. 141, pp 1423-1432).

[2] = target: T1, elastase type III (Sus scrofa, UniProt P00772); experiment: Elastase inhibitory effect; type: biochemical; conditions: EGCG 250 μM; 25° C., 15 minutes, absorbance 415 nm
T1 construct: purchased Sigma-Aldrich E0127
Method: The elastase inhibitory function of the ginsenoside F2 is measured in comparison with that of EGCG. The elastase and the substrate used herein are purchased from Sigma-Aldrich, U.S.A. (Cat. No. E0127).
The elastase inhibitory function is measured according to the following method.
In a 96-well plate, ginsenoside F2 (200 μL) and 50 μL of a 20 μg/mL elastase type III solution are mixed with a […] tris-HCL buffer solution (pH 8.0). The positive control is EGCG 250 μM, and the negative control which is a non-treated group is distilled water. Then, 100 μL of 0.4514 mg/mL N-succinyl-ala-ala-ala-p-nitroanilide prepared with the buffer solution is added to the mixture and allowed to react at 25° C. for 15 minutes. After completion of the reaction, the absorbance at 415 nm was measured. The blank test is performed in the same manner as described above to achieve calibration verification.
The elastase inhibitory function is calculated according to the following mathematical formula 1, and the results are presented in Table 2.
Elastase inhibition rate (%)={1−(C−D)/(A−B)}×100 [Mathematical Formula 1]
A: Absorbance at 415 nm with enzyme and no test substance.
B: Absorbance at 415 nm with no test substance and no enzyme.
C: Absorbance at 415 nm with test substance and enzyme.
D: Absorbance at 415 nm with test substance and no enzyme.

[3] = test system: tyrosinase; experiment: Tyrosinase inhibitory effect; type: biochemical, mushrooms; conditions: 37° C., absorbance 475 nm
Method: The tyrosinase as used herein is an enzyme extracted from mushrooms and purchased from Sigma-Aldrich. Firstly, tyrosine as a substrate is dissolved in distilled water to prepare a 0.3 mg/mL solution, which is added dropwise to a test tube at an amount of 1.0 mL each time. To the solution are added 1.0 mL of a potassium phosphate buffer solution (0.1 mol, pH 6.8) and 0.7 mL of distilled water.
0.2 mL of the sample solution is added to the reactant solution and then allowed to have a reaction in a thermostat container at 37° C. for 10 minutes. In this regards, the control is the reactant solution containing 0.2 mL of a solvent alone in place of each sample solution. The positive control uses ascorbic acid. 0.1 mL of a 2500 unit/mL tyrosinase solution is added to the reactant solution, which is then allowed to have a reaction again in a thermostat container at 37° C. for 10 minutes. The test tube filled with the reactant solution is put into an ice water to cause quenching and thus stop the reaction. The absorbance at 475 nm is measured with a photoelectric spectrophotometer. The tyrosinase inhibitory effect is calculated according to the following mathematical formula 3.

[4] = test system: Human keratinocytes; experiment: Promotion of keratinocyte differentiation (cornified envelope, absorbance 340 nm); type: cell-based; conditions: ginsenoside 5 ppm, 5 days; low calcium negative control = 100
Method: The quantity of CE (Cornified Envelop) generated during differentiation of keratinocytes is measured in terms of absorbance in order to evaluate the ginsenoside F2 in regards to the effect of promoting differentiation of keratinocytes.
Human keratinocytes isolated from the epidermis of a newborn baby and subjected to a primary cultivation are immobilized in the bottom of a cultivation flask, treated with ginsenoside F2 applied to the culture medium to a concentration of 5 ppm, and cultured for 5 days until the keratinocytes grow to take up about 70 to 80% of the bottom area. In this regard, the negative control is the group treated with low calcium (0.03 mM), while the positive control is the group treated with high calcium (1.2 mM). Then, the cultured keratinocytes are harvested, washed with phosphate-buffered saline (PBS), treated with a 10 mM tris-HCl buffer solution (pH 7.4) containing 2% sodium dodecyl sulfate (SDS) and 20 mM dithiothreitol (DTT), and then subjected to sonication, boiling, and centrifugal isolation. The precipitation is suspended in 1 mL of PBS to measure the absorbance at 340 nm. Apart from this process, a part of the solution after sonication is collected and measured in regards to the protein content, which is determined as a reference in evaluating the degree of differentiation.

[5] = test system: procollagen type (I) in fibroblasts; experiment: Collagen biosynthesis in fibroblasts (procollagen type (I) ELISA); type: cell-based; conditions: 10 ng/ml, 24 hours; non-treated group = 100%
Method: The ginsenoside F2 of the present invention is compared with TGF-β in regards to the effect of promoting biosynthesis of collagen. Firstly, fibroblasts are seeded in 24 wells at a rate of 10^5 per well and cultured until the growth reaches 90%. The fibroblasts are cultured in a non-serum culture medium for 24 hours, treated with each 10 ng/ml of ginsenoside F2 or TGF-β dissolved in the non-serum culture medium, and then cultured in a CO2 incubator for 24 hours. The supernatant liquid is collected to determine an increase or decrease of procollagen using a procollagen type (I) ELISA kit. The collagen synthesis ability is denoted with respect to 100% for the non-treated group.

[6] = test system: potassium ion channels (KATP channels); experiment: KATP channel opener test: recovery of NIH3T3 proliferation blocked by tolbutamide (WST-1); type: cell-based, mouse; conditions: 48 hours
From the text: Minoxidil, a treatment for hair loss, is known as a potassium ion channel opener (KATP channel opener) potentially acting on mitochondria and a representative drug used for treatment of androgenic alopecia (hair loss). A testing method used to evaluate the action of minoxidil includes treating with tolbutamide (SIGMA-ALDRICH, T0891) blocking the potassium ion channels (KATP channels) in fibroblasts constituting the corium of scalp to inhibit cell proliferation and then opening the potassium ion channels (KATP channels) to resume the cell proliferation. In order to evaluate the function of the composition of the present invention as a KATP channel opener, the present invention uses a mouse embryonic fibroblast cell line, NIH3T3, as fibroblasts. The cell line is obtained by naturally immortalizing a fibroblast cell line isolated from an NIH Swiss mouse embryo with 3T3 protocol. The cell line is cultured with DMEM (Dulbecco's modified eagle's medium, Gibco BRL, Gaithersburg, Md., U.S.A.) containing 10% FBS (Fetal Bovine Serum) in an incubator under the conditions of 5% CO2 and 37° C. for 24 hours.

[7] = 2.5 ppm after 2.5 mM tolbutamide
[8] = 10 ppm after 2.5 mM tolbutamide

T1 sequence (P00772 27-266): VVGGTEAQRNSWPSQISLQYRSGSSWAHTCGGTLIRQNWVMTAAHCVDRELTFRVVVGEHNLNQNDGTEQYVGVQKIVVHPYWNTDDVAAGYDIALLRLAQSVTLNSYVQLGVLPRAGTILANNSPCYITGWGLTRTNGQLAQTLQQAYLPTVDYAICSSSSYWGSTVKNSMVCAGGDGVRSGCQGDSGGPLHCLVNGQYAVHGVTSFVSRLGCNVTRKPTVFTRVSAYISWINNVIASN

| Compound | ratio to the ROS of the control group, elapsed time after exposure to 30 mJ/cm^2 of UVB 0 hr [1] | ratio to the ROS of the control group, elapsed time after exposure to 30 mJ/cm^2 of UVB 2 hrs [1] | ratio to the ROS of the control group, elapsed time after exposure to 30 mJ/cm^2 of UVB 3 hrs [1] | Inhibition rate (%) (elastase) [2] | Tyrosinase inhibition rate (%) [3] [%] | Differentiation in keratinocytes (%) [4] [%] | Collagen synthesis ability (%) [5] [%] | Cell proliferation ability (%) [6, 7] [%] | Cell proliferation ability (%) ([6]; 5 ppm after 2.5 mM tolbutamide) | Cell proliferation ability (%) [6, 8] [%] |
| --- | --- | --- | --- | --- | --- | --- | --- | --- | --- | --- |
| CC(C)=CCC[C@](C)(O[C@@H]1O[C@H](CO)[C@@H](O)[C@H](O)[C@H]1O)[C@H]1CC[C@]2(C)[C@@H]1[C@H](O)C[C@@H]1[C@@]3(C)CC[C@H](O[C@@H]4O[C@H](CO)[C@@H](O)[C@H](O)[C@H]4O)C(C)(C)[C@@H]3CC[C@]12C [Ginsenoside F2, ginsenoside F2] | 100 | 251 | 286 | 78 | 69 | 309 | 191.6 | 115 | 120 | 131 |
| CC(C)=CCC[C@](C)(O[C@@H]1O[C@H](CO[C@@H]2O[C@H](CO)[C@@H](O)[C@H](O)[C@H]2O)[C@@H](O)[C@H](O)[C@H]1O)[C@H]1CC[C@]2(C)[C@@H]1[C@H](O)C[C@@H]1[C@@]3(C)CC[C@H](O[C@@H]4O[C@H](CO)[C@@H](O)[C@H](O)[C@H]4O[C@@H]4O[C@H](CO)[C@@H](O)[C@H](O)[C@H]4O)C(C)(C)[C@@H]3CC[C@]12C [Ginsenoside Rb1] | 100 | 302 | 354 | 71 | 60 | 265 | 188.3 | 113 | 117 | 124 |

From patent US20150352134A1, “COMPOSITION FOR TOPICAL SKIN APPLICATION CONTAINING GINSENOSIDE F2 DERIVED FROM HYDROPONIC GINSENG” (AMOREPACIFIC CORPORATION, priority 2012, published 2015)
